These are literature values, as cited in PMC5992566 (Nanomedicine, 2018).

For the series the following is noted: after a single parenteral dose.

Take `C[C@H]1CO[C@@H]2Cn3cc(C(=O)NCc4ccc(F)cc4F)c(=O)c(O)c3C(=O)N12` [Cabotegravir, cabotegravir]: the Half-life is 21 to 50 days.
